In patent US20130096067A1, “DROSOPHILA TUMOR STEM CELL MODEL AND USES THEREOF” (priority 2011, published 2013):
Read-outs that look alike come from different tables or passages of the source.

Test system: Raf-1^gof intestinal tumors
Conditions: for Fold / Log2 (fold): Table 3 summary of hits, Screen ICCB; for Fold: luciferase relative to DMSO, fed three consecutive days in vials
[1] = screen of 480 ICCB compounds in vials, compounds fed to flies with one-day old Raf-1^gof tumors, assessed three days later, esg-Gal4 luciferase
[2] = screen of 480 ICCB compounds in vials, compounds fed to flies with one-day old Raf-1^gof tumors, assessed three days later, esg-Gal4 luciferase, averaged from multiple wells
[3] = ICCB compounds fed in vials to flies with one-day old Raf-1^gof tumors, assessed three days later
[4] = ICCB compounds fed in vials to flies with one-day old Raf-1^gof tumors, assessed three days later, averaged from multiple wells
For Fold (luciferase activity relative to DMSO controls) in this document: test concentration or dose not given here.
For Fold (luciferase activity, fold difference relative to DMSO controls) in this document: test concentration or dose not given here.
For Log2 (fold) (luciferase activity, log2 of the fold difference relative to DMSO controls) in this document: test concentration or dose not given here.
For Log2 (fold) of luciferase activity relative to DMSO controls in this document: test concentration or dose not given here.

| Molecule | Log2 (fold) (luciferase activity, log2 of the fold difference relative to DMSO controls) [1] | Fold (luciferase activity, fold difference relative to DMSO controls) [2] | Log2 (fold) of luciferase activity relative to DMSO controls [3] | Fold (luciferase activity relative to DMSO controls) [4] | further results |
| --- | --- | --- | --- | --- | --- |
| C[C@@H]1C[C@H]2[C@@H]3CCC4=CC(=O)C=C[C@]4(C)[C@@]3(F)[C@@H](O)C[C@]2(C)[C@@]1(O)C(=O)CO [dexamethasone] | −0.245 | 0.844 |  |  |  |
| CCCCCCCC/C=C\C/C=C\C/C=C\CCCC(=O)O [MEAD ACID (20:3 n-9)] | −0.279 | 0.824 |  |  |  |
| CC/C(=C(\c1ccccc1)c1ccc(OCCN(C)C)cc1)c1ccccc1 [tamoxifen, reference compound] | −1.562 | 0.339 |  |  | Fold: 0.339 fold |
| C[C@]12CC[C@@H]3c4ccc(O)cc4CC[C@H]3[C@@H]1CC[C@@H]2O [ESTRADIOL] |  |  | −0.160 | 0.895 fold |  |
| N#CC(C#N)=Cc1ccc(O)cc1 [Tyrphostin-8] |  |  |  |  | Fold (luciferase activity, fold difference relative to DMSO controls) (in vivo): 0.796; Log2 (fold) (luciferase activity, log2 of the fold difference relative to DMSO controls) (in vivo): −0.329 |
| CC(C)[C@]12O[C@H]1[C@@H]1O[C@]13[C@]1(O[C@H]1C[C@H]1C4=C(CC[C@@]13C)C(=O)OC4)[C@@H]2O [triptolide, reference compound] |  |  |  |  | Log2 (fold): −2.553 |
| CCCCC/C=C\C[C@@H](O)/C=C/C=C\C/C=C\CCCC(=O)O [12(R)-HETE] | −0.219 | 0.859 |  |  |  |
| Fc1ccc(C(c2ccc(F)cc2)N2CCN(C/C=C/c3ccccc3)CC2)cc1 [FLUNARIZINE] | −0.836 | 0.560 |  |  |  |
| CC1(C2CCCC2)Cc2cc(OCC(=O)O)c(Cl)c(Cl)c2C1=O (centres unmarked) [IAA-94] |  |  | 0.061 | 1.043 fold |  |
| COCc1nc2c([nH]1)c(=O)n(C)c(=O)n2CC(C)C [8-methoxymethyl-IBMX] |  |  | 0.006 | 1.004 fold |  |
| OC[C@H]1NC[C@H](O)[C@@H](O)[C@@H]1O [deoxynorjrimycin(1)] |  |  | −0.154 | 0.899 fold |  |
| Cc1ccc2c(c1)C(=O)C1(O)CCN(c3ccccc3)C1=N2 (centres unmarked) [Blebbistatin] |  |  | 0.196 | 1.146 fold |  |
| N#CC(C#N)=NNc1ccc(OC(F)(F)F)cc1 [FCCP] | −0.313 | 0.805 |  |  |  |
| CCCCC/C=C\C/C=C\C/C=C\CCCCCCC(=O)NCCO [ANANDAMIDE (20:3, n-6)] | −0.653 | 0.636 |  |  |  |
| CC[C@@]1(O)C(=O)OCc2c1cc1n(c2=O)Cc2cc3ccccc3nc2-1 [camptothecin, reference compound] |  |  |  |  | Log2 (fold): −1.619 |
| CCCCCCCCCCCCCCCCOCC(CO)OC(C)=O (centres unmarked) [1-HEXADECYL-2-O-ACETYL-GLYCEROL] |  |  | 0.518 | 1.432 fold |  |
| O=Cc1c2[nH]c3ccccc3c2cc2[nH]c3ccccc3c12 [6-FORMYLINDOLO [3,2-B] CARBAZOLE] | −0.273 | 0.828 |  |  |  |
| CCCCC[C@H](O)/C=C/[C@@H]1[C@H]2C/C(=C/CCCC(=O)O)C[C@H]2C[C@H]1O [CARBACYCLIN] | −0.283 | 0.822 |  |  |  |
| CC1=C(/C=C/C(C)=C/C=C/C(C)=C\C(=O)O)C(C)(C)CCC1 [13-CIS RETINOIC ACID] |  |  | 0.074 | 1.053 fold |  |
| CCCCC[C@H](O)CC[C@H]1[C@H](O)CC(=O)[C@@H]1CCCCCCC(=O)O [13,14-DIHYDRO-PGE1] |  |  | 0.587 | 1.502 fold |  |
| CCCCCCCCCCC1=C(C)C(=O)C(OC)=C(OC)C1=O [Decylubiquinone] | −0.442 | 0.736 |  |  |  |
| CCCCC/C=C\C[C@@H](O)/C=C/c1cccc(C[C@@H](O)CCCCO)n1 [U-75302] |  |  | −0.041 | 0.972 fold |  |
| CCCNCC(O)COc1ccccc1C(=O)CCc1ccccc1 (centres unmarked) [PROPAFENONE] | −0.214 | 0.862 |  |  |  |

| Molecule | Log2 (fold) (luciferase activity, log2 of the fold difference relative to DMSO controls) [1] | Fold (luciferase activity, fold difference relative to DMSO controls) [2] | Log2 (fold) of luciferase activity relative to DMSO controls [3] | Fold (luciferase activity relative to DMSO controls) [4] | further results |
| --- | --- | --- | --- | --- | --- |
| CCCCCCCC(=O)OC[C@H](CO)OC(=O)CCCCCCC [1,2-DIOCTANOYL-SN-GLYCEROL] |  |  | −0.080 | 0.946 fold |  |
| C=C[C@@]1(C)CC(=O)[C@]2(O)[C@@]3(C)[C@@H](O)CCC(C)(C)[C@@H]3[C@H](O)[C@H](OC(C)=O)[C@@]2(C)O1 [forskolin] | −0.449 | 0.732 |  |  |  |
| O=C1Nc2ccc(I)cc2/C1=C/c1cc(Br)c(O)c(Br)c1 [GW-5074] | −0.369 | 0.774 |  |  |  |
| CCCCC[C@H](O)/C=C/[C@@H]1[C@@H](C/C=C\CCCC(=O)O)[C@H](O)C[C@H]1O [9b,11a-PROSTAGLANDIN F2] |  |  | 0.062 | 1.044 fold |  |
| CCCCC/C=C\C/C=C\C/C=C\C/C=C\CCCCCC(=O)O [ADRENIC ACID (22:4, n-6)] | −0.364 | 0.777 |  |  |  |
| C/C(=C\c1ccc(C(=O)O)cc1)c1ccc2c(c1)C(C)(C)CCC2(C)C [TTNPB] |  |  | −0.114 | 0.924 fold |  |
| CCCCC/C=C\C/C=C\C/C=C\C/C=C\CCCC(=O)NCC(=O)O [N-ARACHIDONOYLGLYCINE] |  |  |  |  | Fold (luciferase activity, fold difference relative to DMSO controls) (in vivo): 0.664; Log2 (fold) (luciferase activity, log2 of the fold difference relative to DMSO controls) (in vivo): −0.590 |
| N#CC(=C(/N)Sc1ccccc1N)/C(C#N)=C(/N)Sc1ccccc1N [U-0126] |  |  | −0.023 | 0.984 fold |  |
| C[S+]([O-])c1ccc(-c2nc(-c3ccc(F)cc3)c(-c3ccncc3)[nH]2)cc1 (centres unmarked) [SB 203580] |  |  |  |  | Fold (luciferase activity relative to DMSO controls) (in vivo): 1.036 fold; Log2 (fold) of luciferase activity relative to DMSO controls (in vivo): 0.051 |
| CC1(C)CCC(C)(C)c2cc(C(=O)Nc3ccc(C(=O)O)cc3)ccc21 [AM-580] | −0.311 | 0.806 |  |  |  |
| C=C1[C@@H](O)[C@@H]2O[C@]3(CC[C@H](/C=C/[C@@H](C)[C@@H]4CC(C)=C[C@@]5(O[C@H](C[C@@](C)(O)C(=O)O)CC[C@H]5O)O4)O3)CC[C@H]2O[C@@H]1[C@@H](O)C[C@H](C)[C@H]1O[C@@]2(CCCCO2)CC[C@H]1C [okadaic acid, reference compound] | −1.713 | 0.305 |  |  | Fold: 0.305 fold |
| Clc1cccc(Cl)c1N=C1NCCN1 [clonidine] |  |  | 0.087 | 1.062 fold |  |
| CCCCC/C=C\C/C=C\CCCCCCCC(=O)NCCO [ANANDAMIDE (18:2, n-6)] |  |  | −0.101 | 0.932 fold |  |
| pifithrin |  |  | 0.022 | 1.015 fold |  |
| CCCOc1ccccc1-c1nc2nn[nH]c2c(=O)[nH]1 [zaprinast] |  |  | −0.055 | 0.962 fold |  |
| CCCCC/C=C\C\C=C/C=C/C=C/[C@@H](SC[C@H](NC(=O)CC[C@H](N)C(=O)O)C(=O)NCC(=O)O)[C@@H](O)CCCC(=O)O [LEUKOTRIENE C4] |  |  | 0.114 | 1.082 fold |  |
| O[C@H]1[C@H]2[C@H](O)CCCN2C[C@H]1O [swainsonine] | −0.233 | 0.851 |  |  |  |
| METHOXY VERAPAMIL |  |  | −0.069 | 0.954 fold |  |
| CC(C)c1cccc(=O)c(O)c1 [Hinokitiol] | −0.240 | 0.847 |  |  |  |
| COc1ccc2c(c1)c(CC(=O)O)c(C)n2C(=O)c1ccc(Cl)cc1 [indomethacin] | −0.549 | 0.683 |  |  |  |
| N#CC(=Cc1ccc2[nH]ccc2c1)C(N)=C(C#N)C#N [tyrphostin AG-370] |  |  | 0.314 | 1.243 fold |  |
| COC(=O)C1=C(C)NC(C)=C(C(=O)OCCSc2ccccc2)C1C (centres unmarked) [PCA 4248] |  |  | −0.180 | 0.883 fold |  |
| CC(=O)N[C@@H](CC(C)C)C(=O)N[C@@H](CC(C)C)C(=O)N[C@H](C=O)CCCNC(=N)N [Leupeptin] |  |  | −0.038 | 0.974 fold |  |
